Test results taken from patent US20110166191A1, “3-(2-amino-ethyl)-5-(3-cyclohexyl-propylidene)-thiazolidine-2,4-dione and its derivatives as multiple signaling pathway inhibitors and for the treatment of cancer” (priority 2010, published 2011).
pIC50: −log10 of the molar value.

What was measured:
[1] = system: phosphorylation of ERK; experiment: Western blot analysis of p-ERK in U937 cells; format: cell-based; settings: 3 μM, PMA/TPA 200 nM stimulation
Procedure: (§1) FIG. 1. U937 cells were treated with Formula II prepared as described in Example 4 [i.e. 3-(2-aminoethyl)-5-(3-cyclohexylpropylidene)thiazolidine-2,4-dione] for 1 h, then stimulated with PMA (200 nM) for 30 min. Lysates were analyzed for p-Akt, p-MEK, p-ERK and α-tubulin by western blot analysis.
(§2) Cells (5×10^5 per ml) were treated with various concentrations of test compound at 37° C. (5% CO2) for 3 hrs, then stimulated with TPA at a final concentration of 200 nM for 20 min. Samples from whole-cell pellets were prepared and 30 μg protein for each condition was subjected to SDS-PAGE, transferred onto a PVDF membrane, and blocked with 5% fat-free milk for 30 min. The membrane is probed with primary antibodies overnight at 4° C. followed by incubation with horseradish peroxidase-labeled anti-mouse IgG (1:5000, BD Biosciecne). The immunoreactive bands are detected by chemiluminescence methods (Pierce) and visualized on Kodak Omat film. The following primary antibodies were used: phospho-p44/42 MAPK (ERK1/2, Thr202/Tyr204), p44/42 MAPK, phospho-p90RSK (Thr359/Ser363), RSK1/RSK2/RSK3 (Cell Signaling). Blots were reprobed with antibodies against α-tubulin to ensure equal loading and transfer of proteins.

[2] = molecular target: T1, c-Raf (Homo sapiens, UniProt P04049); experiment: In vitro kinase screening; format: biochemical; settings: 10 μM concentration
T1 construct: Caliper Life Sciences (screening service)
Procedure: (§3) Formula II [3-(2-aminoethyl)-5-(3-cyclohexylpropylidene)thiazolidine-2,4-dione] was screened against a panel of kinases at 10 μM concentration by Caliper Life Sciences according to their established protocol.

[3] = molecular target: T2, PDK1 (Homo sapiens, UniProt O15530); experiment: In vitro kinase screening; format: biochemical; settings: PDK1, 10 μM concentration
T2 construct: Caliper Life Sciences
Procedure: as §3

[4] = molecular target: T3, CAMk4 (Homo sapiens, UniProt Q16566); experiment: In vitro kinase screening; format: biochemical; settings: CAMk4, 10 μM concentration
T3 construct: Caliper Life Sciences (screening service)
Procedure: as §3

[5] = molecular target: T4, Erk1 (Homo sapiens, UniProt P27361); experiment: In vitro kinase screening; format: biochemical; settings: Erk1, 10 μM concentration
T4 construct: Caliper Life Sciences (screening service)
Procedure: as §3

[6] = molecular target: T5, AKT2 (Homo sapiens, UniProt P31751); experiment: In vitro kinase screening; format: biochemical; settings: AKT2, 10 μM concentration
T5 construct: Caliper Life Sciences (screening service)
Procedure: as §3

[7] = molecular target: T6, PRAK (Homo sapiens, UniProt Q8IW41); experiment: In vitro kinase screening; format: biochemical; settings: 10 μM concentration
T6 construct: Caliper Life Sciences
Procedure: as §3

[8] = molecular target: T7, IRAK4 (Homo sapiens, UniProt Q9NWZ3); experiment: In vitro kinase screening; format: biochemical; settings: IRAK4, 10 μM concentration
T7 construct: Caliper Life Sciences (screening service)
Procedure: as §3

[9] = molecular target: T8, RSK1 (Homo sapiens, UniProt Q15418); experiment: In vitro kinase screening; format: biochemical; settings: RSK1, 10 μM concentration
T8 construct: Caliper Life Sciences
Procedure: as §3

[10] = molecular target: T9, Erk2 (Homo sapiens, UniProt P28482); experiment: In vitro kinase screening; format: biochemical; settings: Erk2, 10 μM concentration
T9 construct: Caliper Life Sciences (screening service)
Procedure: as §3

[11] = molecular target: T10, KDR (Homo sapiens, UniProt P35968); experiment: In vitro kinase screening; format: biochemical; settings: 10 μM concentration
T10 construct: Caliper Life Sciences
Procedure: as §3

[12] = molecular target: T11, Ck1d (Homo sapiens, UniProt P48730); experiment: In vitro kinase screening; format: biochemical; settings: 10 μM concentration
T11 construct: Caliper Life Sciences (screening service)
Procedure: as §3

[13] = molecular target: T12, AKT1 (Homo sapiens, UniProt P31749); experiment: In vitro kinase screening; format: biochemical; settings: AKT1, 10 μM concentration
T12 construct: Caliper Life Sciences (screening service)
Procedure: as §3

[14] = system: HT29; experiment: Cell viability assay; format: cell-based; settings: Homo sapiens, HT-29, HT29 cells, 24 hrs, read-out: Inhibition of cancer cell proliferation IC50
Procedure: (§4) Cells were cultured at a density of 5×10^4 (U937) or 1×10^4 (PC-3, DU145, M12, HT29) cells per well in flat bottomed 96-well plates and treated with various concentrations of test compound at 37° C. (5% CO2). After 24 h, 20 μL of CellTiter 96® Aqueous One Solution Reagent (Promega, Madison, Wis.) was added to each well according to the manufacturer's instructions. After 1 hour, the cell viability was determined by measuring the absorbance at 490 nm using a micro-plate reader.

[15] = system: DU145; experiment: Cell viability assay; format: cell-based; settings: Homo sapiens, DU-145, DU145 cells, 24 hrs, read-out: Inhibition of cancer cell proliferation IC50
Procedure: as §4

[16] = system: U937; experiment: Cell viability assay; format: cell-based; settings: Homo sapiens, U-937, U937 cells, 24 hrs, read-out: Inhibition of cancer cell proliferation IC50
Procedure: as §4

[17] = system: M12; experiment: Cell viability assay; format: cell-based; settings: M12 cells, 24 hrs, read-out: Inhibition of cancer cell proliferation IC50
Procedure: as §4

[18] = system: PC-3; experiment: Cell viability assay; format: cell-based; settings: Homo sapiens, PC-3 cells, 24 hrs, read-out: Inhibition of cancer cell proliferation IC50
Procedure: as §4

[19] = system: M12 cells; experiment: Cell apoptosis assay (annexin V/PI flow cytometry); format: cell-based; settings: 24 hrs
Procedure: (§5) FIG. 2. Indicated cancer cells were treated with Formula II synthesized as described in Example 4, 3-(2-aminoethyl)-5-(3-cyclohexylpropylidene)thiazolidine-2,4-dione, at indicated concentrations for 24 hrs, then stained with Annexin-V/PI and analyzed by flow cytometry.
(§6) Apoptosis was measured by flow cytometry using annexin V/propidium iodide (PI) as staining reagent. Briefly, after treatment with test compound of varying concentrations for varying intervals (4, 8, 18, 36 hrs), cells were washed twice with cold PBS and then resuspended in 1× binding buffer (10 mM HEPES [N-2-hydroxyethylpiperazine-N′-2-ethanesulfonic acid]/NaOH, pH 7.4, 140 mM […], 2.5 mM CaCl2). The cells were then incubated with annexin V-fluorescein isothiocyanate (FITC) (BD PharMingen, San Diego, Calif.) and 5 μg/mL propidium iodide (PI), and incubated for 15 minutes at room temperature in the dark per the manufacturer's instructions. The samples were analyzed by flow cytometry using a Becton Dickinson FACScan (Becton Dickinson, San Jose, Calif.) within 1 hr to determine the percentage of cells displaying annexin V staining (early apoptosis) or both annexin V and PI staining (late apoptosis).

[20] = system: U937 cells; experiment: Cell apoptosis assay (annexin V/PI flow cytometry); format: cell-based; settings: 24 hrs
Procedure: as §5, §6

[21] = system: DU145 cells; experiment: Cell apoptosis assay (annexin V/PI flow cytometry); format: cell-based; settings: 24 hrs
Procedure: as §5, §6

[22] = system: p-MEK; experiment: Western blot analysis of p-MEK in U937 cells; format: cell-based; settings: PMA/TPA 200 nM stimulation
Procedure: as §1, §2

T3 sequence (Q16566 whole entry): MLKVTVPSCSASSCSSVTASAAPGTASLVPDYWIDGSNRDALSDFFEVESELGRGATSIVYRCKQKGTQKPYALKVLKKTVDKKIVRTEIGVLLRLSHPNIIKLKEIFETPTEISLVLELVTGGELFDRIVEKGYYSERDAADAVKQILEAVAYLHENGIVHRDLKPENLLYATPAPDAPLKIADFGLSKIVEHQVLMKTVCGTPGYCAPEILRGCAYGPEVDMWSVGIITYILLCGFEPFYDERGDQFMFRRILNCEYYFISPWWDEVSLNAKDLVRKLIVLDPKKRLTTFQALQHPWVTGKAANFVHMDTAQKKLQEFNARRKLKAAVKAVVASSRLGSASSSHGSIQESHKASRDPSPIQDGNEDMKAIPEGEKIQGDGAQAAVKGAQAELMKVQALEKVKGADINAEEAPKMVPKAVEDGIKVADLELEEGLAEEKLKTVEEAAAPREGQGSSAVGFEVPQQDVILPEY
T1 sequence (P04049 whole entry): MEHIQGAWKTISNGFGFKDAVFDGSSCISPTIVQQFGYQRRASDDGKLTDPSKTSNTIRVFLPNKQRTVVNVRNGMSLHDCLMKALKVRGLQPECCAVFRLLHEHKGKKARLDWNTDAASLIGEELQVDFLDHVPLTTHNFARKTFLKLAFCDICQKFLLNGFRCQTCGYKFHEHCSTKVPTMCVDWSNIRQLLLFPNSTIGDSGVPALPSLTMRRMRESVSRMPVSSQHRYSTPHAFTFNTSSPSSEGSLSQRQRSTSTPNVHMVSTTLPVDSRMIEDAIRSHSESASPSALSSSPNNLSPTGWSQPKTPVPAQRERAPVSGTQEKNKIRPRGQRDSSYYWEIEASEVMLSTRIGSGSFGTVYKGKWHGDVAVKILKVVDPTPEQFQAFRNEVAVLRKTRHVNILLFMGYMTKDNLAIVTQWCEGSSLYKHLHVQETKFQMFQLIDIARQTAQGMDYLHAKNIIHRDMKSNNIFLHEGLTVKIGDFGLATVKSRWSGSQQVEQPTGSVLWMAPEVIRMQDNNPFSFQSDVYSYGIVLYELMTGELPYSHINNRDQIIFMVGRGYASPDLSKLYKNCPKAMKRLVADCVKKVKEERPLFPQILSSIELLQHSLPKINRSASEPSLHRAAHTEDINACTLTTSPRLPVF
T9 sequence (P28482 whole entry): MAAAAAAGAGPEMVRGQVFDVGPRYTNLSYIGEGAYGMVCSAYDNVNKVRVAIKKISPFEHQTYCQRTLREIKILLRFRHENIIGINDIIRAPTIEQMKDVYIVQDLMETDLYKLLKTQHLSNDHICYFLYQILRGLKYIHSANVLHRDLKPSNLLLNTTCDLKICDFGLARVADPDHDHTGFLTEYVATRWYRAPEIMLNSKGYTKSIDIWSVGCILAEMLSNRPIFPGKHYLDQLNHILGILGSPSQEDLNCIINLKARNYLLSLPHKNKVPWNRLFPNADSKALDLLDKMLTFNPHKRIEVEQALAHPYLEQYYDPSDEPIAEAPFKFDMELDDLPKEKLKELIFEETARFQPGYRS
T6 sequence (Q8IW41 whole entry, species assumed): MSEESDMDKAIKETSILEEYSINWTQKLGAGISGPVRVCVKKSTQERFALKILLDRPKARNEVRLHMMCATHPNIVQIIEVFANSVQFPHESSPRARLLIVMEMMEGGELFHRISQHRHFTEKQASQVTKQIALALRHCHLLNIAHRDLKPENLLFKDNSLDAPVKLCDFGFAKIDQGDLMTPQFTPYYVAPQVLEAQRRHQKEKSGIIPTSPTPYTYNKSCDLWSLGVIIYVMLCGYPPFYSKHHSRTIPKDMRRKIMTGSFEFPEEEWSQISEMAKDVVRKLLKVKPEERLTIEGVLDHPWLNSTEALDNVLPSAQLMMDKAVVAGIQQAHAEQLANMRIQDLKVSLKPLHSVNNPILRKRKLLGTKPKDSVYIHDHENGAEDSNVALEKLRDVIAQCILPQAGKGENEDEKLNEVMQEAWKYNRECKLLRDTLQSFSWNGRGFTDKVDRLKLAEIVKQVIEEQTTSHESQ
T5 sequence (P31751 whole entry): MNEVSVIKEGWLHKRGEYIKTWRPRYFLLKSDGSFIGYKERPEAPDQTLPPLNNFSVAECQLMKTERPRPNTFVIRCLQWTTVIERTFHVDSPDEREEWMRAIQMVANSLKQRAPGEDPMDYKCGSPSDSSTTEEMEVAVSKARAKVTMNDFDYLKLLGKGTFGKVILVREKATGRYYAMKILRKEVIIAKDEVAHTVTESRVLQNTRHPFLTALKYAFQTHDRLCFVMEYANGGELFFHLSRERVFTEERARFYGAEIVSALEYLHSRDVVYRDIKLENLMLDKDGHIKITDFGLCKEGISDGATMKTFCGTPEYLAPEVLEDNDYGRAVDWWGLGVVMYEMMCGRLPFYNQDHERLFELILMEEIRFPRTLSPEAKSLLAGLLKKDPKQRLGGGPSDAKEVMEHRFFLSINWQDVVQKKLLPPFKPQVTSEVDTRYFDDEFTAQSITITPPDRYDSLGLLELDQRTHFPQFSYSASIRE
T10 sequence (P35968 20-1356, species assumed): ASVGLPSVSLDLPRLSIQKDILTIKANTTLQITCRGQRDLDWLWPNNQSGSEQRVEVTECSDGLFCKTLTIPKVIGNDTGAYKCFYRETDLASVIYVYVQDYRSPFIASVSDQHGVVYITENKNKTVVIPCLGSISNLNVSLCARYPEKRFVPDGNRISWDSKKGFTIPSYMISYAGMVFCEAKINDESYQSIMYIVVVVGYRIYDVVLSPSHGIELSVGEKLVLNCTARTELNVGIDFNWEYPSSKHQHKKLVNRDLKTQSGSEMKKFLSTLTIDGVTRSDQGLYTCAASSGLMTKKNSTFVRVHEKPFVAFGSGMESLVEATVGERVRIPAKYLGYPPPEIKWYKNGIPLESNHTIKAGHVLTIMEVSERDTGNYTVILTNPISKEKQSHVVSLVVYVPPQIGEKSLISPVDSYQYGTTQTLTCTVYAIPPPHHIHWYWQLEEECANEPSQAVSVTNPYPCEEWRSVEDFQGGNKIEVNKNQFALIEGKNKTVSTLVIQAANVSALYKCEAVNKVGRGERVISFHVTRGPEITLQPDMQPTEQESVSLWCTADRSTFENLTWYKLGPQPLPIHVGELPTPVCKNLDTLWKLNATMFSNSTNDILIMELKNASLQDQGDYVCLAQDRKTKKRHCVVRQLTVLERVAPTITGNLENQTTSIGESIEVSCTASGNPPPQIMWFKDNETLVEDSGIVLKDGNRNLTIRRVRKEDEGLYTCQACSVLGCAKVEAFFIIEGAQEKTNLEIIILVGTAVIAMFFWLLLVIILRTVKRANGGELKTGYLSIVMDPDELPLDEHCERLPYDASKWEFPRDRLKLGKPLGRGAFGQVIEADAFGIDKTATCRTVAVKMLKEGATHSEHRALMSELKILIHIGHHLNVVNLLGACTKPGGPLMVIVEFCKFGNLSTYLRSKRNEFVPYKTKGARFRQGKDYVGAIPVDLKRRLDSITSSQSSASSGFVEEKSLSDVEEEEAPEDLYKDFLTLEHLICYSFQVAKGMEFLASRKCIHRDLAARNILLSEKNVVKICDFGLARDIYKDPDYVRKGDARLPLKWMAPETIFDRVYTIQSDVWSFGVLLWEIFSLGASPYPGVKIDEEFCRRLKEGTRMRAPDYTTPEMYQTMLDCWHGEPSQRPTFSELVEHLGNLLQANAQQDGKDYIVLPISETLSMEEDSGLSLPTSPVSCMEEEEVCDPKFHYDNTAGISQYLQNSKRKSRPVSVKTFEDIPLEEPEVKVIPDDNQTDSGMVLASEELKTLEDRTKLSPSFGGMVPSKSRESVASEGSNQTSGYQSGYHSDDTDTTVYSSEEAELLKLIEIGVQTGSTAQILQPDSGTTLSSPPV
T8 sequence (Q15418 whole entry, species assumed): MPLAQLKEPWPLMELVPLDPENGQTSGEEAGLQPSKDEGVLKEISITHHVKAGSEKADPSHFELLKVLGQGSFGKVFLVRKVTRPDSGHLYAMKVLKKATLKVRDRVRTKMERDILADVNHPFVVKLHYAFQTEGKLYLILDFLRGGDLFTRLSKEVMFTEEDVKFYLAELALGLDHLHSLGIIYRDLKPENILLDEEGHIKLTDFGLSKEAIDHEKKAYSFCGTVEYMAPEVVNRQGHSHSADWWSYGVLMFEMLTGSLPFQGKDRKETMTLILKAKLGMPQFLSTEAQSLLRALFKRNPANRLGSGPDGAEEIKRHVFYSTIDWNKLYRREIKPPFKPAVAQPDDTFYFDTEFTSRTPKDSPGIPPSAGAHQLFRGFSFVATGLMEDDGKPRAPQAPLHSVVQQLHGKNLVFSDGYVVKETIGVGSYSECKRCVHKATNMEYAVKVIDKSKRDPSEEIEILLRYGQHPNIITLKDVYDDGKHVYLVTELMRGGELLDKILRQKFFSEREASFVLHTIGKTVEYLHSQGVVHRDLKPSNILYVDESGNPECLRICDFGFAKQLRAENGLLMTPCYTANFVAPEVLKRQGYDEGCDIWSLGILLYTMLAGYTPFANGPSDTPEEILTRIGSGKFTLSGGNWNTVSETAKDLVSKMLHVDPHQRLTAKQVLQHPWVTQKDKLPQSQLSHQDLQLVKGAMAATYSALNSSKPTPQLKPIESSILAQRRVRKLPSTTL
T7 sequence (Q9NWZ3 whole entry): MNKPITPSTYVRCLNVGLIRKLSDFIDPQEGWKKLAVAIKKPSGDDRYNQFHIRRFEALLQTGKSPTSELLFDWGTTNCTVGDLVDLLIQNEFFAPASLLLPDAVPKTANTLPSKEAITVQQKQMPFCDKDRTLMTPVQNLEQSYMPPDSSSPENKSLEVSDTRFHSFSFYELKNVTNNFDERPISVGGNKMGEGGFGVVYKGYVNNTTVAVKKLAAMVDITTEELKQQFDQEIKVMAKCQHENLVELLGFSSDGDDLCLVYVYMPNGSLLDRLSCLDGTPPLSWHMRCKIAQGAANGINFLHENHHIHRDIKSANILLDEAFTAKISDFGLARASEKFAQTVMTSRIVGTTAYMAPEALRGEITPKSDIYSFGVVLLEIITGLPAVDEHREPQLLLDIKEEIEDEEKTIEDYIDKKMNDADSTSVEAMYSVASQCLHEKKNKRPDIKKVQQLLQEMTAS

For NCCN1C(=O)S/C(=C\CCC2CCCCC2)C1=O [Example 4, 3-(2-aminoethyl)-5-(3-cyclohexylpropylidene)thiazolidine-2,4-dione], the “phosphorylation of ERK (p-ERK, western blot)” value [1] was “significantly inhibited the phosphorylation of ERK”, the inhibition at 10 µM [2] was -1% and the inhibition at 10 µM [3] was -2%. It also gave an inhibition at 10 µM [4] of 71%, an inhibition at 10 µM [5] of 21% and an inhibition at 10 µM [6] of 8%. It also gave an inhibition at 10 µM [7] of 4%, an inhibition at 10 µM [8] of -1% and an inhibition at 10 µM [9] of 2%. For the same compound, the inhibition at 10 µM [10] was 11%, the inhibition at 10 µM [11] was -28% and the inhibition at 10 µM [12] was -5%. It also gave an inhibition at 10 µM [13] of 3%, a pIC50 [14] of 4.75 and a pIC50 [15] of 5.32. The pIC50 [16] was 5.66, the pIC50 [17] was 5.35 and the pIC50 [18] was 5.35. For the same compound, the “apoptosis (Annexin-V/PI)” value [19] was “significantly and dose-dependently induced apoptosis”, the “apoptosis (Annexin-V/PI)” value [20] was “significantly and dose-dependently induced apoptosis” and the “apoptosis (Annexin-V/PI)” value [21] was “minimal apoptotic effects”. The “p-MEK level (western blot)” value [22] was “dose-dependently decreased the p-MEK level”.
